Results taken from patent US6423518B1, “Design and production of mutant 2,5-diketo-D-gluconic acid reductase enzymes with altered cofactor dependency” (Rutgers, the State University, priority 2000, dated 2002).

Experiments:
[1] = tested on: hemolymph 3-dehydroecdysone 3β-reductase from Spodoptera littoralis; settings: read-out: KM for NADH; Chen et al. Eur. J. Biochem. 1996; cited from earlier work
[2] = target: T1, 2,5-diketo-D-gluconic acid reductase A (Corynebacterium sp., wild type SEQ ID NO:1) variant R238H (Corynebacterium sp., UniProt P06632, R238H); assay: Kinetic determination with purified enzyme, NADH cofactor, initial rates (microtiter plate); assay type: biochemical
T1 construct: GroES fragment (N); made in house; host or cells: E. coli JM109
Method: (§1) The activities of the purified enzymes were assayed in 96-well microtiter plates on a plate reader.
(§2) Equation (1) is: [formula]
(§3) B=2,5-diketo-D-gluconic acid concentration;
(§4) Kb=Michaelis Constant for 2,5-diketo-D-gluconic acid;
(§5) Kia=Dissociation Constant for NADH;
(§6) Et=Total enzyme concentration.
(§7) However, the parameters could not be fit in this model with any accuracy, due to the large apparent value of KM for 2,5-diketo-D-gluconic acid, and the low concentration of 2,5-diketo-D-gluconic acid that was used. The 2,5-diketo-D-gluconic acid concentrations were not large enough to saturate the enzyme, so a further mathematical simplification was required. Preliminary fitting of the model indicated both kcat and Kb to be very large in comparison to Ka and Kia Therefore, the rate equation was simplified to the following equation (2): [formula]
(§8) This equation is only valid when B<<Kb.
(§9) This equation was then used to fit the kinetic data, with much better results.
(§10) Other comparisons can also be made between the different mutants using these parameters. […]
(§11) Cells containing plasmids for some of the mutant reductases were grown up on a 1 liter scale using a 10 ml inoculum from a saturated overnight culture. The cells were grown until absorbance of the culture at 600 nm was approximately 1.0. The cells were then induced by adding IPTG to a final concentration of 1 mM. The cells were harvested after growth at 37° C. for 4 hours. The cells were then pelleted by centrifugation and frozen for later use. At a later date, cells were thawed and lysed with the Bug Buster detergent (Novagen) containing Complete Protease Inhibitor Cocktail Tablets (Roche). The pH was lowered to 5.5 with 20 mM sodium acetate (NaOAc) and NaCl was added to a final concentration of 0.15 M. After 10 minutes with the detergent, the cell debris was removed by centrifugation, and the supernatant was loaded onto disposable chromatography columns containing a 10 ml bed volume of DEAE Cellulose (Sigma) for a batch weak ion exchange step. The resin was washed with 0.15 M NaCl, still in the presence of NaOAc, pH 5.5. The bound proteins were then eluted by two washes with 0.5 M NaCl. The eluted material was then diluted back to 0.15 M NaCl by the addition of more 20 mM NaOAc buffer. This was then loaded onto a 4.6 mmD/100mml PEEK column (PerSeptive Biosystems) containing 50 μm DEAE Ceramic HyperD F resin (BioSepra) using an FPLC system. The high performance resin was washed with 0.1 M NaCl and the bound proteins were eluted using a linear salt gradient up to 0.4 M NaCl. Active fractions were pooled and the pH was raised to 7.0 using 50 mM bis-Tris. The pooled fractions were then concentrated by ultrafiltration in a stirred cell unit using a polyethersulfone membrane with a 10,000 MW cut-off (Millipore). The concentrate was loaded onto a Superdex-75 gel filtration column (Pharmacia) using 50 mM bis-Tris pH 7.0 with an FPLC system. The active fractions were again pooled. A small sample from the pooled fractions was electrophoresed on a polyacrylamide gel in the presence of SDS in order to insure homogeneity of the final product.
(§12) NADPH and NADH were prepared fresh for each use in kinetic measurements. These reactions were performed in 96-well microtiter plates using a SpectraMax 190 plate reader (Molecular Devices). Varying amounts of cofactor and substrate were added to the wells and reaction was initiated by the addition of the mutant enzyme. The final volume of each reaction was 200 μl, the reactions were buffered with 50 mM bis-Tris pH 7.0, and the temperature was held at 25° C. […] Initial rate data was collected in each well, and a standard curve was generated each day in order to correlate the change in absorbance of the reaction to a change in concentration of cofactors. All measurements were performed in triplicate (at least) and the runs were averaged for use in kinetic modeling.

[3] = target: T2, 2,5-diketo-D-gluconic acid reductase A (Corynebacterium sp., wild type SEQ ID NO:1) variant R235T (Corynebacterium sp., UniProt P06632, R235T); assay: as above; assay type: biochemical
T2 construct: GroES fragment (N); made in house; host or cells: E. coli JM109
Method: as §1, §2, §3, §4, §5, §6, §7, §8, §9, §10, §11, §12

[4] = target: T3, 2,5-diketo-D-gluconic acid reductase A (Corynebacterium sp., wild type SEQ ID NO:1) variant R235G (Corynebacterium sp., UniProt P06632, R235G); assay: as above; assay type: biochemical
T3 construct: GroES fragment (N); made in house; host or cells: E. coli JM109
Method: as §1, §2, §3, §4, §5, §6, §7, §8, §9, §10, §11, §12

[5] = target: T4, 2,5-diketo-D-gluconic acid reductase A (Corynebacterium sp., wild type SEQ ID NO:1) variant K232S (Corynebacterium sp., UniProt P06632, K232S); assay: as above; assay type: biochemical
T4 construct: GroES fragment (N); made in house; host or cells: E. coli JM109
Method: as §1, §2, §3, §4, §5, §6, §7, §8, §9, §10, §11, §12

[6] = target: T5, 2,5-diketo-D-gluconic acid reductase A, wild type, Corynebacterium sp. (ATCC Strain No. 31090; Genbank Accession No. 4699594; SEQ ID NO:1) (Corynebacterium sp., UniProt P06632); assay: as above; assay type: biochemical
T5 construct: GroES fragment (N); made in house; host or cells: E. coli JM109
Method: as §1, §2, §3, §4, §5, §6, §7, §8, §9, §10, §11, §12

[7] = target: T6, 2,5-diketo-D-gluconic acid reductase A (Corynebacterium sp., wild type SEQ ID NO:1) variant R238E (Corynebacterium sp., UniProt P06632, R238E); assay: as above; assay type: biochemical
T6 construct: GroES fragment (N); made in house; host or cells: E. coli JM109
Method: as §1, §2, §3, §4, §5, §6, §7, §8, §9, §10, §11, §12

[8] = target: T7, 2,5-diketo-D-gluconic acid reductase A (Corynebacterium sp., wild type SEQ ID NO:1) variant K232G (Corynebacterium sp., UniProt P06632, K232G); assay: as above; assay type: biochemical
T7 construct: GroES fragment (N); made in house; host or cells: E. coli JM109
Method: as §1, §2, §3, §4, §5, §6, §7, §8, §9, §10, §11, §12

[9] = target: T8, 2,5-diketo-D-gluconic acid reductase A (Corynebacterium sp., wild type SEQ ID NO:1) variant K232M (Corynebacterium sp., UniProt P06632, K232M); assay: as above; assay type: biochemical
T8 construct: GroES fragment (N); made in house; host or cells: E. coli JM109
Method: as §1, §2, §3, §4, §6, §8
(§13) Cells containing plasmids for some of the mutant reductases were grown up on a 1 liter scale using a 10 ml inoculum from a saturated overnight culture. The cells were grown until absorbance of the culture at 600 nm was approximately 1.0. The cells were then induced by adding IPTG to a final concentration of 1 mM. The cells were harvested after growth at 37° C. for 4 hours. The cells were then pelleted by centrifugation and frozen for later use. At a later date, cells were thawed and lysed with the Bug Buster detergent (Novagen) containing Complete Protease Inhibitor Cocktail Tablets (Roche). The pH was lowered to 5.5 with 20 mM sodium acetate (NaOAc) and NaCl was added to a final concentration of 0.15 M. After 10 minutes with the detergent, the cell debris was removed by centrifugation, and the supernatant was loaded onto disposable chromatography columns containing a 10 ml bed volume of DEAE Cellulose (Sigma) for a batch weak ion exchange step. The resin was washed with 0.15 M NaCl, still in the presence of NaOAc, pH 5.5. The bound proteins were then eluted by two washes with 0.5 M NaCl.

[10] = target: T9, 2,5-diketo-D-gluconic acid reductase A (Corynebacterium sp., wild type SEQ ID NO:1) variant K232Q (Corynebacterium sp., UniProt P06632, K232Q); assay: as above; assay type: biochemical
T9 construct: GroES fragment (N); made in house; host or cells: E. coli JM109
Method: as §1, §2, §3, §4, §6, §8, §13

[11] = kcat/Ka apparent with NADH, relative to wild type
[12] = versus wild type, NADH as varied substrate

T3 sequence (P06632 whole entry R235G, the tested form may be a part): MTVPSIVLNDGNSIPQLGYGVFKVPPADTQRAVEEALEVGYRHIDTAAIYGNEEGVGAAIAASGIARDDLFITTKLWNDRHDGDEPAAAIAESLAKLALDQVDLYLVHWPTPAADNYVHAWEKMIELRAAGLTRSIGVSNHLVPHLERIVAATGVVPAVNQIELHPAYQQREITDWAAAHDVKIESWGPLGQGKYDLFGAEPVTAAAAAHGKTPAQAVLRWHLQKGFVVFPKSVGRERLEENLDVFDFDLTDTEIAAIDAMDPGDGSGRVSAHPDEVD
T7 sequence (P06632 whole entry K232G, the tested form may be a part): as the sequence (P06632 whole entry R235G, the tested form may be a part) above, with K232G, G235R counted along it
T2 sequence (P06632 whole entry R235T, the tested form may be a part): as the sequence (P06632 whole entry R235G, the tested form may be a part) above, with G235T counted along it
T4 sequence (P06632 whole entry K232S, the tested form may be a part): as the sequence (P06632 whole entry R235G, the tested form may be a part) above, with K232S, G235R counted along it
T6 sequence (P06632 whole entry R238E, the tested form may be a part): as the sequence (P06632 whole entry R235G, the tested form may be a part) above, with G235R, R238E counted along it
T1 sequence (P06632 whole entry R238H, the tested form may be a part): as the sequence (P06632 whole entry R235G, the tested form may be a part) above, with G235R, R238H counted along it
T5 sequence (P06632 whole entry, the tested form may be a part): as the sequence (P06632 whole entry R235G, the tested form may be a part) above, with G235R counted along it
T8 sequence (P06632 whole entry K232M, the tested form may be a part): as the sequence (P06632 whole entry R235G, the tested form may be a part) above, with K232M, G235R counted along it
T9 sequence (P06632 whole entry K232Q, the tested form may be a part): as the sequence (P06632 whole entry R235G, the tested form may be a part) above, with K232Q, G235R counted along it

## NC(=O)C1=CN([C@@H]2O[C@H](COP(=O)(O)OP(=O)(O)OC[C@H]3O[C@@H](n4cnc5c(N)ncnc54)[C@H](O)[C@@H]3O)[C@@H](O)[C@H]2O)C=CC1 [NADH]
[1]
  Km: 22.8 µM
[2]
  Kd: 2.07 ± 0.13 mM
[2]; [11]
  (kcat/KbKia)/(kcat/KbKia)wt: 6.71
[2]; relative to wild type, NADH
  Kia/(Kia)wt: 0.80
[2]; [12]
  improvement in apparent kcat: more than 5 fold
[3]
  Kd: 8.84 ± 2.28 mM
[3]; [11]
  (kcat/KbKia)/(kcat/KbKia)wt: 0.54
[3]; relative to wild type, NADH
  Kia/(Kia)wt: 3.40
[3]; [12]
  increase of apparent Ka: more than 3 fold
  increase of apparent kcat: 2 fold
[4]
  Kd: 8.42 ± 0.69 mM
[4]; [11]
  (kcat/KbKia)/(kcat/KbKia)wt: 1.53
[4]; relative to wild type, NADH
  Kia/(Kia)wt: 3.24
[4]; [12]
  increase of apparent Ka: more than 3 fold
  increase of apparent kcat: 5 fold
[5]
  Kd: 2.82 ± 0.27 mM
[5]; [11]
  (kcat/KbKia)/(kcat/KbKia)wt: 0.40
[5]; relative to wild type, NADH
  Kia/(Kia)wt: 1.08
[6]; [11]
  (kcat/KbKia)/(kcat/KbKia)wt: 1.00
[6]; read-out: Kia
  Kd: 2.6 ± 0.16 mM
[6]; relative to wild type, NADH
  Kia/(Kia)wt: 1.00
[7]
  Kd: 8.45 ± 1.74 mM
[7]; [11]
  (kcat/KbKia)/(kcat/KbKia)wt: 0.63
[7]; relative to wild type, NADH
  Kia/(Kia)wt: 3.25
[7]; [12]
  change of apparent kcat: doubled
  increase of apparent Ka: more than 3 fold
[8]
  Kd: 2.02 ± 0.12 mM
[8]; [11]
  (kcat/KbKia)/(kcat/KbKia)wt: 1.55
[8]; relative to wild type, NADH
  Kia/(Kia)wt: 0.78
[9]
  Kd: 3.89 ± 0.23 mM
[9]; [11]
  (kcat/KbKia)/(kcat/KbKia)wt: 0.55
[10]
  Kd: 3.87 ± 0.34 mM
[10]; [11]
  (kcat/KbKia)/(kcat/KbKia)wt: 0.59
